12 compounds from patent US5726200A, “Pro-drugs for CCK antagonists” (Warner-Lambert Company, priority 1996, dated 1998) can be followed below.

The experiment deals with T1, CCK-B receptor (Mus musculus, UniProt P56481).
T1 construct: from tissue; host or cells: cerebral cortex membranes of male CFLP mice
T1 sequence (P56481 1-453): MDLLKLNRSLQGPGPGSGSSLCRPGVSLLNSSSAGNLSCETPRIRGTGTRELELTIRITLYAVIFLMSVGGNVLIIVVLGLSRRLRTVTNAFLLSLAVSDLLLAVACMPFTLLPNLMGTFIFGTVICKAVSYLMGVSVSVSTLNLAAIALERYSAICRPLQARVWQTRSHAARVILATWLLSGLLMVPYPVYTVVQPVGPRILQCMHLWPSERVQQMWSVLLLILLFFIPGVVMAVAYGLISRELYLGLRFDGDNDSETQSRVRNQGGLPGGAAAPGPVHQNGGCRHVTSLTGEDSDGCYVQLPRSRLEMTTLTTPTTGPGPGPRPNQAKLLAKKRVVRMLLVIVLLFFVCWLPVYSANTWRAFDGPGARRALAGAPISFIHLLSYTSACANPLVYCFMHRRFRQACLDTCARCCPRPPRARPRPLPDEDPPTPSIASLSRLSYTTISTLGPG
The experiment is described as follows: Displacement of tritiated-pentagastrin binding to mouse cerebral cortical membranes. Details: species or system mouse (male CFLP mice). Conditions: displacement of 2 nM tritiated-pentagastrin, n = number of assays, read-out: Receptor Affinity CCI-B (Ki). How it is done:
The biological activity of compounds of the present invention was evaluated employing an initial screening test which rapidly and accurately measured the binding of the tested compound to known CCK receptor sites. […] (See Hays et al, Neuropeptides 1:53-62, 1980; and Satuer et al, Science 208:1155-1156, 1980).
In this screening test, the cerebral cortices taken from male CFLP mice weighing between 30-40 g were dissected on ice, weighed, and homogenized in 10 volumes of 50 mM Tris-HCl buffer (pH 7.4 at 0°-4° C.). The resulting suspension was centrifuged, the supernate was discarded, and the pellet was washed by resuspension in Tris-HCl buffer followed by recentrifugation. The final pellet was resuspended in 20 volumes of […] Hepes buffer (pH 7.2 at 23° C.) containing 130 mM NaCl, […] KCl, […] MgCl2, […] EDTA, 5 mg/mL bovine albumin, and bacitracin (0.25 mg/mL).
In saturation studies, cerebral cortical membranes were incubated at 23° C. for 120 minutes in a final volume of 500 μL of Hepes incubation buffer (pH 7.2) together with 0.2-20 nM tritiated-pentagastrin (Amersham International, England).
In the displacement experiments, membranes were incubated with a single concentration (2 nM) of iigand, together with increasing concentrations (10^-11 to […]) of competitive test compound. In each case, the nonspecific binding was defined as that persisting in the presence of the unlabeled octapeptide CCK26-33 (10^-6 M).
Following incubation, radioactivity bound to membranes was separated from that free in solution by rapid filtration through Whatman GF/B filters and washed three times with 4 mL of ice cold Tris-HCl buffer. Filters from samples incubated with tritiated-pentagastrin were placed in polyethylene vials with 4 mL of scintillation cocktail, and the radioactivity was estimated by liquid scintillation spectrometry (efficiency 47-52%).
The specific binding to CCK receptor sites was defined as the total bound tritiated-pentagastrin minus the amount of tritiated-pentagastrin bound in the presence of 10^-6 octapeptide, CCK26-33.
Saturation curves for specific tritiated-pentagastrin binding to mouse cortical membranes were analyzed by the methods of Scatchard (Ann. New York Acad. Sci. 51:660-672, 1949, and Hill (J. Physiol. 40:IV-VIII, 1910, to provide estimates for the maximum number of binding sites (Bmax) and the equilibrium dissociation constant (Ka).
In displacement experiments, inhibition curves were analyzed by either logit-log plots or the iterative curve fitting computer program ALLFIT (DeLean, Munson and Redbard, 1978) to provide estimates of the IC50 and nH (apparent Hill coefficient) values). (IC50 values were defined as the concentration of test compound required to produce 50% inhibition of specific binding.)
The inhibition constant (Ki) of the test compound was then calculated according to the Cheng-Prusoff equation: [formula] where [L] is the concentration of radiolabel and Ka is the equilibrium dissociation constant.

Consider `COC(=O)CCCCCNC(=O)[C@H](Cc1ccccc1)NC(=O)[C@@](C)(Cc1c[nH]c2ccccc12)NC(=O)OC1C2CC3CC(C2)CC1C3` (stereo partly drawn) [Compound 5d, L-Phenylalaninamide, α-methyl-N-[(tricyclo[3.3.1.1^3,7]dec-2-yloxy)carbonyl]-D-tryptophyl-N-(6-methoxy-6-oxohexyl)], for which the Ki – broadly, the dissociation constant of the complex between target and ligand, obtained from inhibition or displacement – turned out to be 173 nM.

For the compound `COC(=O)CC[C@H](NC(=O)[C@H](Cc1ccccc1)NC(=O)[C@@](C)(Cc1c[nH]c2ccccc12)NC(=O)OC1C2CC3CC(C2)CC1C3)C(=O)OC` (stereo partly drawn) [Compound 5f], the Ki is 110 nM.

Consider `C[C@](Cc1c[nH]c2ccccc12)(NC(=O)OC1C2CC3CC(C2)CC1C3)C(=O)N[C@@H](Cc1ccccc1)C(=O)NCCC(=O)O` (stereo partly drawn) [Compound 6a, β-Alanine, N-[N-[α-methyl-N-[(tricyclo[3.3.1.1^3,7]-dec-2-yloxy)carbonyl]-D-tryptophyl]-L-phenylalanyl]], for which the Ki amounted to 27.9 ± 4.1 nM.

Consider `C[C@](Cc1c[nH]c2ccccc12)(NC(=O)OC1C2CC3CC(C2)CC1C3)C(=O)N[C@@H](Cc1ccccc1)C(=O)N[C@@H](CC(=O)O)C(=O)O` (stereo partly drawn) [Compound 6h, L-Aspartic acid, N-[N-[α-methyl-N-[(tricyclo[3.3.1.1^3,7]dec-2-yloxy)carbonyl]-D-tryptophyl]-L-phenylalanyl]], for which the inhibition constant (Ki) stood at 1170 nM.

For `C[C@](Cc1c[nH]c2ccccc12)(NC(=O)OC1C2CC3CC(C2)CC1C3)C(=O)N[C@@H](Cc1ccccc1)C(=O)N[C@@H](CCC(=O)O)C(=O)O` (stereo partly drawn) [Compound 6i, L-Glutamic acid, N-[N-[α-methyl-N-[(tricyclo[3.3.1.1^3,7]dec-2-yloxy)carbonyl]-D-tryptophyl]-L-phenylalanyl]], the Ki came out at 1520 nM.

Consider `C[C@](Cc1c[nH]c2ccccc12)(NC(=O)OC1C2CC3CC(C2)CC1C3)C(=O)N[C@@H](Cc1ccccc1)C(=O)NCC(=O)O` (stereo partly drawn) [Compound 6j, Glycine, N-[2-methyl-N-[(tricyclo[3.3.1.1^3,7]dec-2-yloxy)carbonyl]-D-tryptophyl]-L-phenylalanyl-], for which the Ki is 7.41 ± 1.04 nM.

Turning to `COC(=O)CCNC(=O)C[C@H](Cc1ccccc1)NC(=O)[C@@](C)(Cc1c[nH]c2ccccc12)NC(=O)OC1C2CC3CC(C2)CC1C3` (stereo partly drawn) [Compound 10a, β-Alanine, N-[3-[[3-(1H-indol-3-yl)-2-methyl-1-oxo-2-[[(tricyclo[3.3.1.1^3,7]dec-2-yloxy)carbonyl]amino]propyl]amino]-1-oxo-4-phenylbutyl]-, methyl ester, [R-(R*,S*)]], the inhibition constant Ki turned out to be 21.2 ± 5.4 nM.

`CCOC(=O)CNC(=O)C[C@H](Cc1ccccc1)NC(=O)[C@@](C)(Cc1c[nH]c2ccccc12)NC(=O)OC1C2CC3CC(C2)CC1C3` (stereo partly drawn) [Compound 10k, Glycine, N-[3-[[3-(1H-indol-3-yl)-2-methyl-1-oxo-2-[[(tricyclo[3.3.1.1^3,7]dec-2-yloxy)carbonyl]amino]propyl]amino]-1-oxo-4-phenylbutyl]-, ethyl ester, [R-(R*,S*)]-]: the Ki turned out to be 17.9 nM.

On to `CCOC(=O)CCCNC(=O)C[C@H](Cc1ccccc1)NC(=O)[C@@](C)(Cc1c[nH]c2ccccc12)NC(=O)OC1C2CC3CC(C2)CC1C3` (stereo partly drawn) [Compound 10l], for which the Ki was 66.4 nM.

Consider `C[C@](Cc1c[nH]c2ccccc12)(NC(=O)OC1C2CC3CC(C2)CC1C3)C(=O)N[C@H](CC(=O)NCCC(=O)O)Cc1ccccc1` (stereo partly drawn) [Compound 11a, β-Alanine, N-[3-[[3-(1H-indol-3-yl)-2-methyl-1-oxo-2-[[(tricyclo[3.3.1.1^3,7]dec-2-yloxy)carbonyl]amino]propyl]amino]-1-oxo-4-phenylbutyl]-, [R-(R*,S*)]], for which the inhibition constant (Ki) worked out at 9.44 nM.

Turning to `C[C@](Cc1c[nH]c2ccccc12)(NC(=O)OC1C2CC3CC(C2)CC1C3)C(=O)N[C@H](CC(=O)NCC(=O)O)Cc1ccccc1` (stereo partly drawn) [Compound 11k], the Ki amounted to 4.4 ± 0.6 nM.

For `C[C@](Cc1c[nH]c2ccccc12)(NC(=O)OC1C2CC3CC(C2)CC1C3)C(=O)N[C@H](CC(=O)NCCCC(=O)O)Cc1ccccc1` (stereo partly drawn) [Compound 11l, Butanoic acid, 4-[[3-[[3-(1H-indol-3-yl)-2-methyl-1-oxo-2-[[(tricyclo[3.3.1.1^3,7]dec-2-yloxy)carbonyl]amino]propyl]amino]-1-oxo-4-phenylbutyl]amino]-, [R-(R*,S*)]], the Ki was 10.6 ± 0.12 nM.
